Source: US20230190760A1, “ADVANTAGEOUS THERAPIES FOR DISORDERS MEDIATED BY IKAROS OR AIOLOS” (C4 Therapeutics, Inc., priority 2020, published 2023)

Legend:
[1] = system: Caspase 3/7 activity in NCIH929 multiple myeloma cells; experiment: Apoptosis induction, Caspase 3/7 activity in NCIH929 cells; format: cell-based; details: Homo sapiens, NCI-H929, 72 h, read-out: EC50, caspase 3/7 activity
Protocol: 30 μL NCIH929 cells were seeded into the 384-well plates in RPMI medium containing 10% FBS and 0.05 mM 2-mercaptoethanol at a cell density of 1000 cells per well. Cells treated in the absence of the test compound were the negative control. Following compound treatment, cells were incubated at 37° C. with 5% CO2 for 72 hr. 30 μL reconstituted Caspase 3/7 Assay detection reagent was added to each well and luminescence was acquired on EnVision™ Multilabel Reader (PerkinElmer, Santa Clara, Calif., USA).

[2] = system: NCI-H929 multiple myeloma tumors; experiment: NCI-H929 multiple myeloma xenograft, NOD SCID mice (Example 13); format: in vivo; details: 3000 μg/kg PO QD
Protocol: Compound 1 efficacy in two multiple myeloma cell lines (NC-H929) and (RPMI-8226) was evaluated at four different doses: 3 μg/kg, 10 μg/kg, 30 μg/kg, and 100 μg/kg. Compound 1 was administered QD (every day) orally (PO). […]
For the NCI-H929 cells, the xenograft study was conducted in female NOD SCID mice bearing NCI-H929 multiple myeloma tumors.
(§1) Statistical analysis was performed using two-way analysis of variance (ANOVA). Data are expressed as MTV±SEM.

[3] = system: RPMI-8226 tumors; experiment: RPMI-8226 xenograft, crossover from pomalidomide to Compound 1; format: in vivo, mice; details: 3000 μg/kg/day for 17 days
Protocol: Vehicle treated animals were treated for 28 days until tumors reached a MTV of 2211 mm^3. […] Data are expressed as MTV±SEM.
Tumor growth was monitored throughout the study. […] Measurements were twice weekly. The health of the mice was monitored, and noteworthy clinical observations were recorded. Acceptable toxicity was defined as a group's mean BW loss of less than 20% during the study and not more than one treatment related death among ten treated animals, or 10%.
Animals were weighed on a twice weekly schedule.

[4] = system: REC1 mantle cell lymphoma tumors; experiment: REC1 mantle cell lymphoma xenograft, balb/c nude mice; format: in vivo; details: Compound 1 10, 30, or 100 μg/kg; pomalidomide 3000 μg/kg; 18 days
Protocol: A xenograft study was conducted in female balb/c nude mice bearing REC1 mantle cell lymphoma tumors.
as §1

[5] = system: TMD8 DLBCL tumors; experiment: TMD8 DLBCL xenograft, NOD SCID mice; format: in vivo; details: Compound 1 100 μg/kg; pomalidomide 3000 μg/kg; 18 days
Protocol: A xenograft study was also conducted in female NOD SCID mice bearing TMD8 DLBCL tumors.
as §1

[6] = system: OCI-LY10; experiment: Anti-proliferative activity, 96 hours; details: Homo sapiens, OCI-Ly10, 96 h
[7] = system: TMD8; experiment: Anti-proliferative activity, 96 hours; details: Homo sapiens, TMD8, 96 h
[8] = system: SU-DHL-2; experiment: Anti-proliferative activity, 96 hours; details: Homo sapiens, SU-DHL-2, 96 h
[9] = system: KARPASS422; experiment: Anti-proliferative activity, 96 hours
[10] = system: Pfeiffer; experiment: Anti-proliferative activity, 96 hours; details: Homo sapiens
[11] = system: RL; experiment: Anti-proliferative activity, 96 hours; details: Homo sapiens
[12] = system: DOHH-2; experiment: Anti-proliferative activity, 96 hours; details: Homo sapiens, DOHH-2, 96 h
[13] = system: WSU-DLCL2; experiment: Anti-proliferative activity, 96 hours; details: Homo sapiens, WSUDLCL2, 96 h
[14] = system: SU-DHL-5; experiment: Anti-proliferative activity, 96 hours; details: Homo sapiens, SU-DHL-5, 96 h
[15] = system: Farage; experiment: Anti-proliferative activity, 96 hours
[16] = system: SU-DHL-1; experiment: Anti-proliferative activity, 96 hours; details: Homo sapiens, SU-DHL-1, 96 h
[17] = system: KIJK; experiment: Anti-proliferative activity, 96 hours
[18] = system: DL40; experiment: Anti-proliferative activity, 96 hours
[19] = system: SR; experiment: Anti-proliferative activity, 96 hours; details: Homo sapiens
[20] = system: HuT 102; experiment: Anti-proliferative activity, 96 hours; details: HuT-102, 96 h
[21] = system: HH; experiment: Anti-proliferative activity, 96 hours; details: Homo sapiens
[22] = system: Mino; experiment: Anti-proliferative activity, 96 hours; details: Homo sapiens
[23] = system: Rec-1; experiment: Anti-proliferative activity, 96 hours; details: Homo sapiens, Rec1, 96 h
[24] = system: Maver-1; experiment: Anti-proliferative activity, 96 hours; details: Homo sapiens, Maver1, 96 h
[25] = system: Jeko-1; experiment: Anti-proliferative activity, 96 hours; details: Homo sapiens, JeKo-1, 96 h
[26] = system: MM.1S; experiment: Anti-proliferative activity, 96 hours; details: Homo sapiens, MM1.S
[27] = system: OPM-2; experiment: Anti-proliferative activity, 96 hours; details: Homo sapiens, OPM-2, 96 h
[28] = system: KMM-1; experiment: Anti-proliferative activity, 96 hours; details: KMM-1, 96 h
[29] = system: H929; experiment: Anti-proliferative activity, 96 hours; details: Homo sapiens, NCI-H929, 96 h
[30] = system: MM.1R; experiment: Anti-proliferative activity, 96 hours
[31] = system: LP-1; experiment: Anti-proliferative activity, 96 hours; details: Homo sapiens, LP-1, 96 h
[32] = system: RPMI 8226; experiment: Anti-proliferative activity, 96 hours; details: Homo sapiens, RPMI-8226, 96 h
[33] = system: KMS-26; experiment: Anti-proliferative activity, 96 hours; details: KMS-26, 96 h
[34] = system: NCIH929 cells; experiment: NCI-H929 viability assay (CellTiter-Glo); details: 96 hours
Protocol: NCIH929 cell viability was determined based on quantification of ATP using CellTiter-Glo®2.0 luminescent Assay kit, which signals the presence of metabolically-active cells. Briefly, test compound was added to 384-well plates at a top concentration of 1 μM with 10 points, half log titration in duplicates. NCIH929 cells were seeded into the 384-well plates in RPMI medium containing 10% FBS and 0.05 mM 2-mercaptoethanol at a cell density of 750 cells per well. Cells treated in the absence of the test compound were the negative control and cells treated in the absence of CellTiter-Glo® 2.0 were the positive control. Cells treated with the test compounds were incubated at 37° C. with 5% CO2 for 96 hr. CellTiter-Glo reagent was then added to the cells and Luminescence was acquired on EnVision™ Multilabel Reader (PerkinElmer, Santa Clara, Calif., USA). % Viability was determined by normalizing the signal with positive and DMSO treated negative controls on the same microtiter plate. […] Curve fit and IC502 determination was performed by 4 parametric regression analysis.

[35] = system: IMiD-resistant NCIH929 cells; experiment: Growth of IMiD-resistant NCIH929 cells (CellTiter-Glo); details: at concentrations up to 10 μM
Protocol: Briefly, test compound was added to 384-well plates at a top concentration of 10 μM with 14 points, half log titration in duplicates. NCIH929 cells were seeded into the 384-well plates in RPMI medium containing 10% FBS and 0.05 mM 2-mercaptoethanol at a cell density of 750 cells per well. Cells treated in the absence of the test compound were the negative control and cells treated in the absence of CellTiter-Glo® 2.0 were the positive control. Cells treated with the test compounds were incubated at 37° C. with 5% CO2 for 96 hr. CellTiter-Glo reagent was then added to the cells and luminescence was acquired on EnVision™ Multilabel Reader (PerkinElmer, Santa Clara, Calif., USA). % Viability was determined by normalizing the signal with positive and DMSO treated negative controls on the same microtiter plate.

[36] = system: Caspase 3/7 activity in TMD8 cells; experiment: Apoptosis induction, Caspase 3/7 activity in TMD8 cells; details: Homo sapiens, TMD8, 48 h, read-out: EC50, caspase 3/7 activity
Protocol: 30 μL TMD8 cells were seeded into the 384-well plates in RPMI medium containing 10% FBS at a cell density of 2000 cells per well. Cells treated in the absence of the test compound were the negative control. Following compound treatment, cells were incubated at 37° C. with 5% CO2 for 48 hr. 30 μL reconstituted Caspase 3/7 Assay detection reagent was added to each well and luminescence was acquired on EnVision™ Multilabel Reader (PerkinElmer, Santa Clara, Calif., USA).

[37] = target: IKZF1 (Homo sapiens, UniProt Q13422+Q96SW2)
Sequence of IKZF1 (Q13422 whole entry): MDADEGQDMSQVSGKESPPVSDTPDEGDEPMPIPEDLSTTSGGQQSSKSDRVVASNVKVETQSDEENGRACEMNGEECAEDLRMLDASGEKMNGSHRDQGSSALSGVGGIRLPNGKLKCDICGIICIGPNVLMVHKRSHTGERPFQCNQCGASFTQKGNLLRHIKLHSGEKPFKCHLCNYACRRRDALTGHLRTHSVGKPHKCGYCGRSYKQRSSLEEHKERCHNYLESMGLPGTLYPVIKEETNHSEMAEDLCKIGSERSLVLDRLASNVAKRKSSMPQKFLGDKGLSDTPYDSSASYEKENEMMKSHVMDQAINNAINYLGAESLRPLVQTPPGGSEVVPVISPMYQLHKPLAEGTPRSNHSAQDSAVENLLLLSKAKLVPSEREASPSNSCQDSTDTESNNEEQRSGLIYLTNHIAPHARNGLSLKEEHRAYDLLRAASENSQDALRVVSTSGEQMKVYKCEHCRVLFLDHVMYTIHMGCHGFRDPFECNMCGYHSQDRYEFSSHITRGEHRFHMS
Sequence of IKZF1 (Q96SW2 whole entry): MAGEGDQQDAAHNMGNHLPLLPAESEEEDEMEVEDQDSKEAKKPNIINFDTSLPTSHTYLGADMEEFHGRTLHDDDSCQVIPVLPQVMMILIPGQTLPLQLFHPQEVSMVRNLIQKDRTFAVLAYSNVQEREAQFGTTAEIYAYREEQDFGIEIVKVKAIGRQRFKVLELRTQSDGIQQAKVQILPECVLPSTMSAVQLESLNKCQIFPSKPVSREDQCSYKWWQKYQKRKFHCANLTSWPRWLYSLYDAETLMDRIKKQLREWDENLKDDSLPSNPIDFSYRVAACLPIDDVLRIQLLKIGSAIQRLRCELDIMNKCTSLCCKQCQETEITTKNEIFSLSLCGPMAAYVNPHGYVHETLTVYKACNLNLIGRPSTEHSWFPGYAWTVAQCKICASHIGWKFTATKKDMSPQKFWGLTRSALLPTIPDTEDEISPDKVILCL
Sequence of IKZF1 (Q16531 2-1140 partner limits assumed): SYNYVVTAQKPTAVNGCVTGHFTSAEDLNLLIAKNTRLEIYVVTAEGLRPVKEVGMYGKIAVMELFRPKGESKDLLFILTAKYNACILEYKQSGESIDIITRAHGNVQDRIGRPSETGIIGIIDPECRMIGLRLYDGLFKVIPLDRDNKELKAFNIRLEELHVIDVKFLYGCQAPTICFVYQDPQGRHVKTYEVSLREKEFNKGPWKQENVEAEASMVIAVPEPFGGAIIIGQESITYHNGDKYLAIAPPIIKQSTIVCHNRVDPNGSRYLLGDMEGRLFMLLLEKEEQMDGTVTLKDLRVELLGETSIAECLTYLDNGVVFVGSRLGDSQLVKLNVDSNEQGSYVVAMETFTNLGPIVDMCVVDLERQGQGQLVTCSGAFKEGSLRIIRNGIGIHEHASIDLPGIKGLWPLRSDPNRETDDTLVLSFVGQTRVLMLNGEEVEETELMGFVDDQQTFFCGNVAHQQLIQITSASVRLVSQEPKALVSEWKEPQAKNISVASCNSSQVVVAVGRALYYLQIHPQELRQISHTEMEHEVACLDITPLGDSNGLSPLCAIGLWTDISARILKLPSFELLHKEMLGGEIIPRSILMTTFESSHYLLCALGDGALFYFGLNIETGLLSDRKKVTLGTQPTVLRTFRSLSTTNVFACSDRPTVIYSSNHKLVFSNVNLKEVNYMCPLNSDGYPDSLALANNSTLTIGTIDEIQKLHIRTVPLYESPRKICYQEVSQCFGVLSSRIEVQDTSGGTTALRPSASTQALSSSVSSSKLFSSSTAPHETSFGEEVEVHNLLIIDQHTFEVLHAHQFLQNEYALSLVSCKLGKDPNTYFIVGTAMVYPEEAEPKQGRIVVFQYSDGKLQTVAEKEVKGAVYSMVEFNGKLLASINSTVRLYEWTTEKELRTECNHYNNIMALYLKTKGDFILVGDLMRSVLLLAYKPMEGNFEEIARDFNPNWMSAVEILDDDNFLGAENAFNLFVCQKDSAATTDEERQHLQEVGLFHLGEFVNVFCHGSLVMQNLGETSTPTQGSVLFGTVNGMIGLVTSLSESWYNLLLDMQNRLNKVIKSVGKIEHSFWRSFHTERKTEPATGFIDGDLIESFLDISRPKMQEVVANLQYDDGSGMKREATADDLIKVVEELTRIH
Protocol: Endogenous expression of IKZF1 in NCIH929 cells was determined by addition of N-terminal HiBiT tag to the NCIH929 cell line using CRISPR-Cas9. Briefly, test compound was added to 384-well plates at a top concentration of 1 μM with 10 points, half log titration in duplicates. NCIH929 cells expressing HiBiT-tagged IKZF1 were seeded into the 384-well plates in RPMI medium containing 10% FBS and 0.05 mM 2-mercaptoethanol at a cell density of 15000 cells per well. Cells treated in the absence of the test compound were the negative control and wells containing media only were the positive control. Following compound treatment, cells were incubated at 37° C. with 5% CO2 for 1.5 hr. HiBiT signal was determined using Nano-Glo™ HiBiT Lytic Assay System (Promega, N3050) and luminescence was acquired on EnVision™ Multilabel Reader (PerkinElmer, Santa Clara, Calif., USA). % IKZF1 remaining was determined by normalizing the signal with positive and negative controls on the same microtiter plate. […] Curve fit and IC50 determination was performed by 4 parametric regression analysis.
NCIH929 cells expressing HiBiT-tagged IKZF1 were seeded into the 384-well plates in RPMI medium containing 10% FBS and 0.05 mM 2-mercaptoethanol at a cell density of 15000 cells per well. Cells treated in the absence of the test compound were the negative control and wells containing media only were the positive control. Following compound treatment, cells were incubated at 37° C. with 5% CO2 for 1 or 2 hr. HiBiT signal was determined using Nano-Glo™ HiBiT Lytic Assay System (Promega, N3050) and luminescence was acquired on EnVision™ Multilabel Reader (PerkinElmer, Santa Clara, Calif., USA). % IKZF1 remaining was determined by normalizing the signal with positive and negative controls on the same microtiter plate. Curve fit and IC50 determination was performed by 4 parametric regression analysis.

Nc1cccc2c1C(=O)N(C1CCC(=O)NC1=O)C2=O (stereo not drawn) [Pomalidomide, reference compound]
EC50 [1]: 407 nM
Statistical Significance Compared to Vehicle [2]: 0.718
tumor response [3]: no response
tumor volume [4]: increased
tumor volume [5]: increased
IC50 [6]: 47.7 nM
IC50 [7]: 327 nM
IC50 [8]: > 10000 nM
IC50 [9]: 24.4 nM
IC50 [10]: > 10000 nM
IC50 [11]: > 10000 nM
IC50 [12]: 1150 nM
IC50 [13]: > 10000 nM
IC50 [14]: > 10000 nM
IC50 [15]: > 10000 nM
IC50 [16]: 378 nM
IC50 [17]: 4330 nM
IC50 [18]: > 10000 nM
IC50 [19]: > 10000 nM
IC50 [20]: > 10000 nM
IC50 [21]: > 10000 nM
IC50 [22]: 426 nM
IC50 [23]: 44.8 nM
IC50 [24]: > 10000 nM
IC50 [25]: > 10000 nM
IC50 [26]: 71 nM
IC50 [27]: 93.3 nM
IC50 [28]: 527 nM
IC50 [29]: 171 nM
IC50 [30]: 193 nM
IC50 [31]: 576 nM
IC50 [32]: > 10000 nM
IC50 [33]: 2090 nM
Mean Emax (%) ± SD, H929 Viability ([34]; % viability): 15.6 ± 4.2%
IC50 ([34]; read-out: Mean IC50 (nM), H929 Viability): 141 nM
growth inhibition [35]: less than 50%
EC50 [36]: 1200 nM
Emax ([37]; NCI-H929, read-out: Mean Emax (%) ± SD, IKZF1 Degradation): 55.7 ± 6%
IKZF1 degradation ([37]; after 1 hour treatment): less than 25%
